Test system: 996289-038-R-J1-PDC complex spheroid viability
Experiment: Anticancer human tumor 996289-038-R-J1-PDC patient-derived colon adenocarcinoma cell line growth inhibition [CLK]
Details: for IC50: curve of first compound; for viability, T/C: stronger effect = lower value
Outline: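 Multi-cell-type spheroids combined patient-derived tumor cells with HUVEC endothelial cells and human mesenchymal stem cells. Paired agents were dosed in half-log steps down from about clinical Cmax, or from 10 microM where Cmax was unknown.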

[1] = second compound 0.0316 µM, first compound 0.0316 µM
[2] = second compound 0.0316 µM, first compound 0.1 µM
[3] = second compound 0.0316 µM, first compound 0.316 µM
[4] = second compound 0.0316 µM, first compound 1 µM
[5] = second compound 0.0316 µM, first compound 3.16 µM
[6] = second compound 0.0316 µM, first compound 10 µM
[7] = second compound 0.1 µM, first compound 0.0316 µM
[8] = second compound 0.1 µM, first compound 0.1 µM
[9] = second compound 0.1 µM, first compound 0.316 µM
[10] = second compound 0.1 µM, first compound 1 µM
[11] = second compound 0.1 µM, first compound 3.16 µM
[12] = second compound 0.1 µM, first compound 10 µM
[13] = second compound 0.316 µM, first compound 0.0316 µM
[14] = second compound 0.316 µM, first compound 0.1 µM
[15] = second compound 0.316 µM, first compound 0.316 µM
[16] = second compound 0.316 µM, first compound 1 µM
[17] = second compound 0.316 µM, first compound 3.16 µM
[18] = second compound 0.316 µM, first compound 10 µM
[19] = second compound 1 µM, first compound 0.0316 µM
[20] = second compound 1 µM, first compound 0.1 µM
[21] = second compound 1 µM, first compound 0.316 µM
[22] = second compound 1 µM, first compound 1 µM
[23] = second compound 1 µM, first compound 3.16 µM
[24] = second compound 1 µM, first compound 10 µM
[25] = second compound 3.16 µM, first compound 0.0316 µM
[26] = second compound 3.16 µM, first compound 0.1 µM
[27] = second compound 3.16 µM, first compound 0.316 µM
[28] = second compound 3.16 µM, first compound 1 µM
[29] = second compound 3.16 µM, first compound 3.16 µM
[30] = second compound 3.16 µM, first compound 10 µM
[31] = second compound 10 µM, first compound 0.0316 µM
[32] = second compound 10 µM, first compound 0.1 µM
[33] = second compound 10 µM, first compound 0.316 µM
[34] = second compound 10 µM, first compound 1 µM
[35] = second compound 10 µM, first compound 3.16 µM
[36] = second compound 10 µM, first compound 10 µM
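Note: spheroids exposed to the agents for 7 days before readout.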

## CC1COCCN1c1cc(C2(S(C)(=N)=O)CC2)nc(-c2ccnc3[nH]ccc23)n1 (stereo unspecified) + CNC(=O)c1ccc(Nc2nc(OC3CCCC3)c3c(-c4ccc5nc(C)oc5c4)c[nH]c3n2)c(OC)c1
Second compound 0.0316 µM
  IC50: > 10000 nM
Second compound 0.1 µM
  IC50: > 10000 nM
Second compound 0.316 µM
  IC50: > 10000 nM
Second compound 1 µM
  IC50: 3670 nM
Second compound 3.16 µM
  IC50: 2840 nM
Second compound 10 µM
  IC50: 2130 nM
[1]
  viability, T/C: 116%
[2]
  viability, T/C: 126%
[3]
  viability, T/C: 118%
[4]
  viability, T/C: 117%
[5]
  viability, T/C: 122%
[6]
  viability, T/C: 100%
[7]
  viability, T/C: 129%
[8]
  viability, T/C: 135%
[9]
  viability, T/C: 129%
[10]
  viability, T/C: 122%
[11]
  viability, T/C: 121%
[12]
  viability, T/C: 88.1%
[13]
  viability, T/C: 84.8%
[14]
  viability, T/C: 83%
[15]
  viability, T/C: 79.4%
[16]
  viability, T/C: 73.2%
[17]
  viability, T/C: 73.8%
[18]
  viability, T/C: 58.5%
[19]
  viability, T/C: 70.3%
[20]
  viability, T/C: 71.5%
[21]
  viability, T/C: 68.8%
[22]
  viability, T/C: 57.5%
[23]
  viability, T/C: 54.2%
[24]
  viability, T/C: 36.9%
[25]
  viability, T/C: 68.5%
[26]
  viability, T/C: 60.9%
[27]
  viability, T/C: 55.8%
[28]
  viability, T/C: 64%
[29]
  viability, T/C: 46%
[30]
  viability, T/C: 39.8%
[31]
  viability, T/C: 59.3%
[32]
  viability, T/C: 55.7%
[33]
  viability, T/C: 57%
[34]
  viability, T/C: 53.7%
[35]
  viability, T/C: 48.1%
[36]
  viability, T/C: 31%

## COc1c(OCCCN2CCOCC2)ccc2c3n(c(=NC(=O)c4cnc(N)nc4)nc12)CCN3 + CNC(=O)c1ccc(Nc2nc(OC3CCCC3)c3c(-c4ccc5nc(C)oc5c4)c[nH]c3n2)c(OC)c1
Second compound 0.0316 µM
  IC50: 123 nM
Second compound 0.1 µM
  IC50: 97.3 nM
Second compound 0.316 µM
  IC50: 28.9 nM
Second compound 1 µM
  IC50: 7.67 nM
Second compound 3.16 µM
  IC50: 3.86 nM
Second compound 10 µM
  IC50: < 3.16 nM
Second compound 0.0316 µM, first compound 0.00316 µM
  viability, T/C: 112%
Second compound 0.0316 µM, first compound 0.01 µM
  viability, T/C: 96.5%
[1]
  viability, T/C: 72.6%
[2]
  viability, T/C: 54.6%
[3]
  viability, T/C: 35.4%
[4]
  viability, T/C: 25.2%
Second compound 0.1 µM, first compound 0.00316 µM
  viability, T/C: 112%
Second compound 0.1 µM, first compound 0.01 µM
  viability, T/C: 96.1%
[7]
  viability, T/C: 71.8%
[8]
  viability, T/C: 48.7%
[9]
  viability, T/C: 33.8%
[10]
  viability, T/C: 21.2%
Second compound 0.316 µM, first compound 0.00316 µM
  viability, T/C: 70.2%
Second compound 0.316 µM, first compound 0.01 µM
  viability, T/C: 62.8%
[13]
  viability, T/C: 47.7%
[14]
  viability, T/C: 35.5%
[15]
  viability, T/C: 22.9%
[16]
  viability, T/C: 14.4%
Second compound 1 µM, first compound 0.00316 µM
  viability, T/C: 59.1%
Second compound 1 µM, first compound 0.01 µM
  viability, T/C: 46.5%
[19]
  viability, T/C: 33.8%
[20]
  viability, T/C: 19.7%
[21]
  viability, T/C: 15.6%
[22]
  viability, T/C: 13.3%
Second compound 3.16 µM, first compound 0.00316 µM
  viability, T/C: 51.2%
Second compound 3.16 µM, first compound 0.01 µM
  viability, T/C: 41.9%
[25]
  viability, T/C: 29.5%
[26]
  viability, T/C: 20.7%
[27]
  viability, T/C: 13.5%
[28]
  viability, T/C: 11.7%
Second compound 10 µM, first compound 0.00316 µM
  viability, T/C: 46.6%
Second compound 10 µM, first compound 0.01 µM
  viability, T/C: 40.4%
[31]
  viability, T/C: 28.9%
[32]
  viability, T/C: 18.4%
[33]
  viability, T/C: 12.7%
[34]
  viability, T/C: 10.5%

## COC1C=CCC(C)C(C)S(=O)(=O)NC(=O)c2ccc3c(c2)N(CC2CCC21)CC1(CCCc2cc(Cl)ccc21)CO3 (stereo unspecified) + CN1CCN(c2cc(C(=O)Nc3cc4cc(-c5cnn(C)c5)ccc4cn3)ccn2)CC1
Second compound 0.0316 µM
  IC50: 4530 nM
Second compound 0.1 µM
  IC50: 2780 nM
Second compound 0.316 µM
  IC50: 1470 nM
Second compound 1 µM
  IC50: < 31.6 nM
Second compound 3.16 µM
  IC50: < 31.6 nM
Second compound 10 µM
  IC50: < 31.6 nM
[1]
  viability, T/C: 98.8%
[2]
  viability, T/C: 106%
[3]
  viability, T/C: 96.2%
[4]
  viability, T/C: 79.5%
[5]
  viability, T/C: 60.4%
[6]
  viability, T/C: 30.1%
[7]
  viability, T/C: 93.3%
[8]
  viability, T/C: 86.1%
[9]
  viability, T/C: 78.8%
[10]
  viability, T/C: 78%
[11]
  viability, T/C: 45.6%
[12]
  viability, T/C: 27.7%
[13]
  viability, T/C: 60.6%
[14]
  viability, T/C: 74.7%
[15]
  viability, T/C: 63.6%
[16]
  viability, T/C: 53.9%
[17]
  viability, T/C: 39.6%
[18]
  viability, T/C: 21%
[19]
  viability, T/C: 7.76%
[20]
  viability, T/C: 8.39%
[21]
  viability, T/C: 6.69%
[22]
  viability, T/C: 4.97%
[23]
  viability, T/C: 4.86%
[24]
  viability, T/C: 2.21%
[25]
  viability, T/C: 1.75%
[26]
  viability, T/C: 0.92%
[27]
  viability, T/C: 1.25%
[28]
  viability, T/C: 1.45%
[29]
  viability, T/C: 1.53%
[30]
  viability, T/C: 0.93%
[31]
  viability, T/C: 1.98%
[32]
  viability, T/C: 1.21%
[33]
  viability, T/C: 0.68%
[34]
  viability, T/C: 0.74%
[35]
  viability, T/C: 0.47%
[36]
  viability, T/C: 1.7%
